# Entries after “also recorded” stand apart in the source; their conditions may differ. Read-outs that look alike come from different tables or passages of the source.
# Columns and labels:
# Assay type in all cases: physicochemical
# [1] = Salt stability studies, 40° C./75% RH for 1 week, XRPD
# Experimental: Recovered salts were placed in an oven at 40° C./75% RH for 1 week, and the resultant materials were analyzed by XRPD to determine any changes to form or crystallinity.
# [2] = 1-week stability tests (40° C./75% RH, 80° C., ambient light), XRPD and UPLC
# Description: Compound 1 (Form I) was subjected to various different environmental conditions to assess stability.
# [3] = Salt disproportionation studies; conditions: deionized water, 24 h at ambient temperature
# Experimental: Salt disproportionation studies were carried out as follows: 20 mg of prepared salts were weighed into a vial and 0.5 mL of deionized water was added. The samples were then agitated for 24 h at ambient temperature. The pH of the samples was taken pre- and post-agitation. Any solids recovered were submitted for XRPD analysis to determine any changes to form.
# [4] = Thermodynamic solubility of prepared salts
# Experimental: Thermodynamic solubility studies were carried out as follows: 10 mg of prepared salts were suspended in pH 1, 4.5, 6.8 and un-buffered water (300 μL). The pH of the slurries was measured and adjusted accordingly using either 0.2M HCl solution or 0.2M sodium hydroxide solution. The slurries were agitated for 24 hours at ambient temperature using an incubator shaker.
# [5] = Dynamic vapor sorption (DVS); conditions: for Hygroscopicity, mass uptake by DVS: at 90% RH; for Crystalline form by XRPD after exposure to DVS humidity conditions: post-DVS XRPD
# Experimental: Approximately, 10 mg of sample was placed into a mesh vapor sorption balance pan and loaded into a DVS-1 dynamic vapor sorption balance by Surface Measurement Systems. The sample was subjected to a ramping profile from 40-90% relative humidity (RH) at 10% increments, maintaining the sample at each step until a stable weight had been achieved (99.5% step completion). After completion of the sorption cycle, the sample was dried using the same procedure to 0% RH and then a second sorption cycle back to 40% RH. The weight change during the sorption/desorption cycles were plotted, allowing for the hygroscopic nature of the sample to be determined. XRPD analysis was then carried out on any solid retained.
# [6] = Hydration screen in acetone/water mixtures; conditions: 24 hr
# Experimental: Hydration screen was carried out as follows: 10 mg of prepared salts were suspended in several acetone/water mixtures of various water activities (low: aw=0.281, medium: aw=0.776 and high: aw=0.919) and agitated at ambient temperatures for 24 hr. Any recovered solids were submitted for XRPD analysis to determine any changes to form.
# [7] = Gravimetric vapor sorption (GVS)
# Experimental: Approximately 10-20 mg of sample was placed into a mesh vapor sorption balance pan and loaded into an IGASorp Moisture Sorption Analyzer balance by Hiden Analytical. […] After completion of the sorption cycle, the sample was dried using the same procedure to 0% RH, and finally taken back to the starting point of 40% RH. The weight change during the sorption/desorption cycles were plotted, allowing for the hygroscopic nature of the sample to be determined.
# [8] = Approximate solvent solubility of amorphous Compound 1 free base by solvent addition (Example 1); conditions: for solubility: organic solvent or mixture, thermodynamic from solid, read-out: Approx. Solubility
# Experimental: A solid Compound 1 was obtained as follows. A […] of solution containing about 330 mg of Compound 1 in warm 1,4-dioxane was divided between 33, 2 mL glass vials (1.5 mL in each). The solutions were frozen and freeze-dried by lyophilization overnight. The resulting material was then analyzed by XRPD to confirm mostly amorphous material.
# Approximately 10 mg of amorphous Compound 1 was produced in 32×2 mL glass vials from freeze drying and 100 μL of the appropriate solvent system was added to the appropriate vial. Between each addition, the mixture was checked for dissolution and if no dissolution was apparent, the mixture was heated to about 40° C. and checked again. This procedure was continued until dissolution was observed or until 2 mL had been added (to the compound concentration of <5 mg/mL).
# [9] = salt recovered from isopropanol
smiles,measurement,setting,value
C[C@@H]1CCc2ncc(F)cc2[C@H]2CCCN2c2ccn3ncc(c3n2)C(=O)N1.O=S(=O)(O)c1ccccc1 [besylate pattern 1],Post-stability XRPD: changes to form or crystallinity,[1]; salt recovered from TBME,preferred orientation but no changes to form
same,Post-stability XRPD: changes to form or crystallinity,[1]; salt recovered from THF,an increase to crystallinity but no changes to form
same,Post-stability XRPD: changes to form or crystallinity,[1]; salt recovered from ethanol,a decrease in crystallinity
C[C@@H]1CCc2ncc(F)cc2[C@H]2CCCN2c2ccn3ncc(c3n2)C(=O)N1.O=C(O)C(=O)O [oxalate],Post-stability XRPD: changes to form or crystallinity,[1]; salt recovered from ethanol,a change in crystallinity and form
same,Post-stability XRPD: changes to form or crystallinity,[1]; salt recovered from methanol,"no change to crystallinity however, changes to form were seen"
C[C@@H]1CCc2ncc(F)cc2[C@H]2CCCN2c2ccn3ncc(c3n2)C(=O)N1.O=S(=O)(O)c1ccccc1 [Compound 1 besylate],1-week stability test: change to form (XRPD),[2]; 40° C./75% RH,appears to be a mixture of besylate salt and something else
same,1-week stability test: change in purity (UPLC),[2]; 80° C.,no change to purity
same,1-week stability test: change to form (XRPD),[2]; 80° C.,no change to form
same,1-week stability test: change in purity (UPLC),[2]; ambient light,no change to purity
same,1-week stability test: change to form (XRPD),[2]; ambient light,no change to form
same,Salt disproportionation: recovered material by XRPD,[3],poorly crystalline free base
same,Thermodynamic solubility in words,[4]; pH 1,highly soluble
same,Solid recovered from thermodynamic solubility slurry (XRPD),[4]; pH 4.5,an unknown form
same,Thermodynamic solubility in words,[4]; pH 4.5,moderately soluble
same,Solid recovered from thermodynamic solubility slurry (XRPD),[4]; pH 6.8,poorly crystalline free base
same,Thermodynamic solubility in words,[4]; pH 6.8,low solubility
same,Solid recovered from thermodynamic solubility slurry (XRPD),[4]; unbuffered water,poorly crystalline free base
same,Thermodynamic solubility in words,[4]; unbuffered water,moderately soluble
same,"Hygroscopicity, mass uptake by DVS",[5],about 0.7%
same,Crystalline form by XRPD after exposure to DVS humidity conditions,[5],no changes in crystalline form
same,Hydration study: recovered solid by XRPD,[6]; high water activity (aw=0.919),poorly crystalline besylate salt
same,Hydration study: recovered solid by XRPD,[6]; low water activity (aw=0.281),poorly crystalline besylate salt
C[C@@H]1CCc2ncc(F)cc2[C@H]2CCCN2c2ccn3ncc(c3n2)C(=O)N1.Cc1ccc(S(=O)(=O)O)cc1,Post-stability XRPD: changes to form or crystallinity,[1]; salt recovered from acetone,become amorphous
C[C@@H]1CCc2ncc(F)cc2[C@H]2CCCN2c2ccn3ncc(c3n2)C(=O)N1.O=C(O)CC(O)(CC(=O)O)C(=O)O [Compound 1 citrate Form A],Post-stability XRPD: changes to form or crystallinity,[1]; salt recovered from TBME,a decrease to crystallinity but no change to form
same,Post-stability XRPD: changes to form or crystallinity,[1]; salt recovered from acetone,a decrease to crystallinity but no change to form
same,"Hygroscopicity, mass uptake by DVS",[5],around 1.8%
C[C@@H]1CCc2ncc(F)cc2[C@H]2CCCN2c2ccn3ncc(c3n2)C(=O)N1.O=C(O)/C=C/C(=O)O [crystalline fumarate],Post-stability XRPD: changes to form or crystallinity,[1]; salt recovered from acetone,"a slight decrease to crystallinity however, no change to form"
"C[C@@H]1CCc2ncc(F)cc2[C@H]2CCCN2c2ccn3ncc(c3n2)C(=O)N1 [Compound 1, (6R,15R)-9-fluoro-15-methyl-2,11,16,20,21,24-hexaazapentacyclo[16.5.2.0^2,6.0^7,12.0^21,25]pentacosa-1(24),7,9,11,18(25),19,22-heptaen-17-one]",1-week stability test: change in purity (UPLC),[2]; 40° C./75% RH,no change in purity
same,1-week stability test: change to form (XRPD),[2]; 40° C./75% RH,no change to form
same,1-week stability test: change in purity (UPLC),[2]; 80° C.,no change in purity
same,1-week stability test: change to form (XRPD),[2]; 80° C.,no change to form
same,Average purity after 1-week stability test (UPLC),[2]; 80° C. test,99.3%
same,1-week stability test: change in purity (UPLC),[2]; ambient light,no change in purity
same,1-week stability test: change to form (XRPD),[2]; ambient light,no change to form
same,Average purity after 1-week stability test (UPLC),[2]; ambient light test,99.2%
same,Average purity after 1-week stability test (UPLC),[2]; relative humidity test (40° C./75% RH),99.2%
same,Crystalline form by XRPD after exposure to GVS humidity conditions,[7]; post-GVS XRPD,no changes to form or crystallinity; also recorded: no changes in crystalline form
same,solubility,"[8]; 1,2-Dimethoxyethane",8.3 mg/mL
same,solubility,"[8]; 1,4-Dioxane",8.3 mg/mL
same,solubility,[8]; 1-butanol,17 mg/mL
same,solubility,[8]; 2-Ethoxy ethanol,50 mg/mL
same,solubility,[8]; 2-Propanol,14.3 mg/mL
same,solubility,[8]; 2-butanone,11.1 mg/mL
same,solubility,[8]; Acetone,11.1 mg/mL
same,solubility,[8]; Acetonitrile,12.5 mg/mL
same,solubility,[8]; Dimethylsulfoxide,50 mg/mL
same,solubility,[8]; Ethanol,20 mg/mL
same,solubility,[8]; Methanol,50 mg/mL
same,solubility,[8]; Methylisobutyl ketone,6.25 mg/mL
same,solubility,"[8]; Tetrahydrofuran, 40 °C",20 mg/mL
same,solubility,[8]; anisole,11.1 mg/mL
same,Solvent solubility in words,"[8]; non-polar solvents such as toluene and 1,4-dioxane",low solubility
same,solubility,[8]; Diglyme (bis(2-methoxyethyl ether)),8.3 mg/mL
same,Solvent solubility in words,"[8]; polar aprotic solvents such as acetone, ethyl acetate and acetonitrile",medium solubility
same,Solvent solubility in words,"[8]; polar solvents such as DMSO, DMF and protic solvents such as methanol",high solubility
same,"Hygroscopicity, mass uptake by DVS",[5],about 0.7%
same,Crystalline form by XRPD after exposure to DVS humidity conditions,[5],no change in crystalline form
CS(=O)(=O)O.C[C@@H]1CCc2ncc(F)cc2[C@H]2CCCN2c2ccn3ncc(c3n2)C(=O)N1 [crystalline mesylate],Post-stability XRPD: changes to form or crystallinity,[1]; salt recovered from acetone,no changes to crystallinity or form
same,Post-stability XRPD: changes to form or crystallinity,[1]; [9],a slight increase in crystallinity but no changes to form
same,Post-stability XRPD: changes to form or crystallinity,[1]; salt recovered from methanol,a decrease in crystallinity but no changes to form
C[C@@H]1CCc2ncc(F)cc2[C@H]2CCCN2c2ccn3ncc(c3n2)C(=O)N1 [edisylate],Post-stability XRPD: changes to form or crystallinity,[1]; [9],become amorphous
C[C@@H]1CCc2ncc(F)cc2[C@H]2CCCN2c2ccn3ncc(c3n2)C(=O)N1.O=C(O)C[C@H](O)C(=O)O [crystalline L-malate],Post-stability XRPD: changes to form or crystallinity,[1]; salt recovered from TBME,no change to crystallinity and form
C[C@@H]1CCc2ncc(F)cc2[C@H]2CCCN2c2ccn3ncc(c3n2)C(=O)N1.O=C(O)CCC(=O)O [crystalline succinate],Post-stability XRPD: changes to form or crystallinity,[1]; salt recovered from acetone,a decrease in crystallinity but no change to form
"C[C@@H]1CCc2ncc(F)cc2[C@H]2CCCN2c2ccn3ncc(c3n2)C(=O)N1 [Form I, (6R,15R)-9-fluoro-15-methyl-2,11,16,20,21,24-hexaazapentacyclo[16.5.2.0^2,6.0^7,12.0^21,25]pentacosa-1(24),7,9,11,18(25),19,22-heptaen-17-one]","Hygroscopicity, mass uptake by GVS",[7]; at 90% RH,about 0.3%
same,"Hygroscopicity, mass uptake by DVS",[5],about 0.7%
